# Assay results as given in PMC10242655, “Syringin inhibits endogenous volume regulated anion channel currents of HEK293 cells in hypotonic circumstances” (Pharmacology Research & Perspectives, 2023).
# Target: T1, VRAC (LRRC8A) (Homo sapiens, UniProt Q8IWT6)
# T1 construct: endogenous VRAC channels of wild-type HEK293 cells; with at least one other LRRC8 subunit (LRRC8B-E; composition not determined)
# T1 sequence (Q8IWT6 1-810): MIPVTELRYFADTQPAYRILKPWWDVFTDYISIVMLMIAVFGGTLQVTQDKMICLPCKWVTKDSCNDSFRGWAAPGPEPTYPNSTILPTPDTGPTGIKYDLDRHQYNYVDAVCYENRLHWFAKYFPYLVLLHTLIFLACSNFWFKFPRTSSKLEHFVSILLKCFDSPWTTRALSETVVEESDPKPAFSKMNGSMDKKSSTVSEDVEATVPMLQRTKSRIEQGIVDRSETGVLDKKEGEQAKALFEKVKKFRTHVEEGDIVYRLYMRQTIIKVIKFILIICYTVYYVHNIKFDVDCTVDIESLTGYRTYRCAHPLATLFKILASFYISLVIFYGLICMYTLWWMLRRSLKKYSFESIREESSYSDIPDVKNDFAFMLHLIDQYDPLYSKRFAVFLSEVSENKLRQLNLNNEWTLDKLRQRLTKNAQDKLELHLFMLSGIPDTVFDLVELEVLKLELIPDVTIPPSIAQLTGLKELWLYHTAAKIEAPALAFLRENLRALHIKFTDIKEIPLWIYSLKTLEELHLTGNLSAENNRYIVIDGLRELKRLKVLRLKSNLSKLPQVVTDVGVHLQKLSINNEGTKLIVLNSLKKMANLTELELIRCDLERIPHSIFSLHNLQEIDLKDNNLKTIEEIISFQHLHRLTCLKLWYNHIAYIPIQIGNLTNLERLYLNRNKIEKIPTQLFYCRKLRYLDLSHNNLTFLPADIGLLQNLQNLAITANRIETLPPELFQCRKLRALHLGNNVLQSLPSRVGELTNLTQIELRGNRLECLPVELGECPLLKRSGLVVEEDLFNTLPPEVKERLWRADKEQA
# Assay: whole-cell patch clamp of hypotonicity-induced VRAC currents in HEK293; I/I0 […] at […]
# Type: cell-based
smiles,measurement,value
"COc1cc(/C=C/CO)cc(OC)c1O[C@@H]1O[C@H](CO)[C@@H](O)[C@H](O)[C@H]1O [Syringin, 4‐[(1E)‐3‐hydroxyprop‐1‐en‐1‐yl]‐2,6‐dimethoxyphenyl β‐D‐glucopyranoside]",whole-cell patch clamp of hypotonicity-induced VRAC currents in HEK293; I/I0 0.6,I/I0 0.61 ± 0.02 at 100 μM
